Reference: PMC11645267, “Novel pharmacologic inhibition of lysine-specific demethylase 1 as a potential therapeutic for glioblastoma” (Cancer Gene Therapy, 2024)

Assays:
[1] = test system: F3; assay: Stemness marker expression (qPCR, western blot); type: cell-based; details: F3, 5 μM, 96 h
Excerpt: Super-enhancers consist of enhancer clusters with abundant binding of transcription factors and are highly enriched with H3K27ac marks. The H3K4me2 increased regions included the MYC locus and H3K4me2 de novo regions comprised Nestin and SOX2 loci (Fig. 2F, Supplementary Fig. S5A). These regions were also identified as super-enhancers in GSCs using data from our previous study (Fig. 2F). Compared to the large increase in H3K4me2 in these regions, changes in H3K4me3 were subtle after S2172 treatment (only 2582 regions were acquired modification) (Fig. 2C). Increasing the me2/me3 ratio at H3K4 is associated with reduced gene expression. […]
(§1) instructions. For GSC cells, the CellTiter-Glo 3D Viability Assay (Promega, Madison, WI, USA) was used to measure the living cells. All proliferation experiments were repeated […]
(§2) A. Left panel: Western blot analysis of H3K4me1, H3K4me2, H3K4me3, and H3K9me2 after treatment with either DMSO or S2172 5μM for 96 h in normal neural stem cell F3 . […] Right panel: Quantification of signal intensities of the Western blot. […]
C. […] Right panel: Quantification of band signal intensities from the Western blot.
Error bars indicate the SD; n = 3. […] The ratio was calculated by dividing the intensity of the cleaved PARP band by the full-length PARP band. […]

[2] = test system: F3; assay: Western blot of global histone modifications; type: cell-based; details: F3, 5 μM, 96 h
Protocol: The effects of S2172 on global histone modifications in GSCs were examined using western blot analysis. GSC cells were treated with 5 μM of S2172 since […] of the cells are still viable at this concentration (Fig. 2, Supplementary Fig. S1E). […] Treatment of GSCs with S2172 increased the overall levels of H3K4me2 as well as H3K9me2. However, these changes were not statistically significant (Fig. 2A, B). […]
as §1
The density of bands was quantified using ImageJ software (https://imagej.nih.gov/ij/). […]
When mice were scanned with MRI, mice were anesthetized with isoflurane (3% in air) and placed in MRS 3017 Benchtop MRI Systems (MR Solutions, Guildford, UK). Using MRI images, tumor volumes were obtained by compiling tumor areas from all slices that contained tumors and calculated by ImageJ software (https://imagej.nih.gov/ij/) {Towner, […]
as §2
C. […] Right panel: Quantification of band signal intensities from the Western blot. […]

## NC1CCC(NC2CC2c2cc(F)cc(F)c2OCc2ccccc2)CC1 (centres unmarked) [S2172]
[1]
  expression levels of stemness markers: not significantly affected
[2]
  changes in the levels of H3K4me1, H3K4me2, H3K4me3, and H3K9me2: not significant
